Results published in ChEMBL document CHEMBL5614444, “Advancements in Targeted Therapeutics: Integrating Metabolic Modulation, Immune Engineering, and Biologic Formulation Technologies” (ACS Med Chem Lett, 2024).
Active and inactive are the calls of the source. The rule behind the calls is not given here.

Tests used:
[1] = target: T1, Peroxisome proliferator-activated receptor gamma (Homo sapiens) (UniProt P37231); assay: (§1) Antagonist activity at PPARgamma (unknown origin); conditions: filed as antagonist
T1 sequence (whole entry): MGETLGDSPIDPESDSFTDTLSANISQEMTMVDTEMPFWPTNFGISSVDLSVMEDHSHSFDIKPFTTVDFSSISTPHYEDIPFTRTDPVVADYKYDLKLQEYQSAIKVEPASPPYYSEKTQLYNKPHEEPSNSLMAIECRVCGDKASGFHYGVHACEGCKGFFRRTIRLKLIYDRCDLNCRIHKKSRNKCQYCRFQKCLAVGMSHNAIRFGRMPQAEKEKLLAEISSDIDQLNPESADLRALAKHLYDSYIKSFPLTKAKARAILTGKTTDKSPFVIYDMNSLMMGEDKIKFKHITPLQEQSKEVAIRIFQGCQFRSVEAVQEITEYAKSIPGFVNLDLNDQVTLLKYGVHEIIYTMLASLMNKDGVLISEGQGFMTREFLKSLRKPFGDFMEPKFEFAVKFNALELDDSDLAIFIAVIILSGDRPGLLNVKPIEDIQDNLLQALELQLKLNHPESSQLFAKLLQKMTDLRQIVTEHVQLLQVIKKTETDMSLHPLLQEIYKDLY

[2] = target: T2, Peroxisome proliferator-activated receptor gamma (Homo sapiens, UniProt P37231); assay: as §1
T2 sequence (P37231 whole entry): T1 sequence (whole entry)

[3] = target: T1, Peroxisome proliferator-activated receptor gamma (Homo sapiens); assay: Inhibition of PPARgamma (unknown origin)

Activity [1] | Compound | also measured
Active | Cc1cc([N+](=O)[O-])ccc1NS(=O)(=O)c1cc(Cl)ccc1Cl | 
Active | COP(=O)(OC)OC(c1ccc(Cl)cc1)P(=O)(OC)OC (centres undefined) | 
 | O=C(Nc1ccccc1)c1cc([N+](=O)[O-])ccc1Cl | IC50 [2]: 3.3 nM
 | COc1ccc2nccc(NC(=O)c3cc([N+](=O)[O-])ccc3Cl)c2c1 | inhibition [3]: Active
